In US20080146630A1, “CRYSTAL FORM OF 2-(3-FLUORO-4-HYDROXYPHENYL)-7-VINYL-1,3-BENZOXAZOL-5-OL” (WYETH, priority 2006, published 2008):

Assay: Conversion of Form E on suspending and stirring in solvent (slurry)
Format: physicochemical
Excerpt: The anhydrate crystal form (Form E) can be converted to other crystal forms under suitable conditions.

C=Cc1cc(O)cc2nc(-c3ccc(O)c(F)c3)oc12 [Form E, 2-(3-fluoro-4-hydroxyphenyl)-7-vinyl-1,3-benzoxazol-5-ol]
crystal form conversion after suspension and stirring (suspended and stirred in acetone at room temperature for seven days): another anhydrate crystal form is obtained | crystal form conversion after suspension and stirring (suspended and stirred in ethanol at room temperature for seven days): another anhydrate crystal form is obtained | crystal form conversion after suspension and stirring (suspended and stirred in water at room temperature for seven days): converted to a hydrate crystal form
